From patent publication US20220380430A1, “Non-Transgenic Functional Rescue of Neuropeptides” (Worcester Polytechnic Institute, priority 2021, published 2022) come the findings set out here.

No end group written: not given here.

The test system of assay [1] is flp-3 lof males. Briefly: Single worm attraction assay (SWAA) to ascr #8 after FLP-3 peptide rescue-by-feeding. The note with it: flp-3 lof males raised on peptide; in words. The class given is in vivo, C. elegans. The protocol:
The outer forty wells of a 48-well suspension culture plate (Olympus Plastics, Cat #: 25-103) were seeded with 200 μL of standard NGM agar. To prepare the plates for the assay, they were acclimated to room temperature, at which point each well was seeded with 65 μL of OP50 E. coli. The assay plates were then transferred to a 37° C. incubator with the lid tilted for 4 h to allow the bacterial culture to dry on the agar. Once the bacterial culture dried, the lid was replaced the plate was stored at 20° C. until used in the assay. Fifty to sixty L4 worms were segregated by sex and stored at 20° C. for 5 h to overnight to be assayed as young adults. 0.8 μL of either vehicle control or ascaroside #8 was placed in the center of the well corresponding to that condition within the quadrant being tested, following a random block design (FIG. 11A). A single worm was placed in each of the 10 wells to be assayed, and the plate was transferred to a light source and camera and recorded for 15 m. This process was repeated for all four quadrants. Each strain and sex were assayed over five plates assayed on at least three different days. Raw dwell time values were calculated by subtracting the time a worm exited the cue (center of the well in spatial controls), from the time it entered, as in the SRA. This was determined per visit, and the average dwell time was calculated for each animal in the quadrant. Averages of the four-quadrant means were determined per plate, and a minimum of five plates were assayed per strain/condition. The mean raw dwell time across five plates was calculated and used for statistical analyses and graphical display. The average dwell time in the ascaroside was divided by the average dwell time within the vehicle control per plate to generate a fold-change. To transform the data, the log of this fold-change was taken, and the average log(fold-change) was used for statistical analyses and graphical display. […]

The test system of assay [2] is trh-1 mutant worms. Briefly: Size comparison (body volume) after rescue-by-feeding. The class given is in vivo, C. elegans. The note with it: trh-1 mutant animals fed peptide; N2 set as 100%. The protocol: All animals were maintained on bacterial lawns of OP50 E. coli, at 20° C., on NGM agar plates until the start of experiments. Mutant or control animals were transferred onto lawns of DH5α E. coli expressing either scramble peptide or the rescue peptide-of-interest on NGM plates containing […] AMP and 1 mM IPTG. Animals were reared on the peptide-expressing lawns for at least 48 hours at 20° C. before assaying for rescue of mutant phenotype at the appropriate developmental stage.
The body morphology different of trh-1 mutants was compared to wild-type worms by body volume measurements. Wild-type (N2) and trh-1 animals were synchronized by embryonic starvation following alkaline hypochlorite protocols. Ten gravid hermaphrodites from OP50 E. coli plates were picked into 30 μL drops of alkaline hypochlorite solution (20% sodium hypochlorite, 500 mM KOH). Two drops were placed on either side of an unseeded NGM plate, resulting in 20 animals per plate. Plates were then incubated for 24 hours at 20° C. before L1 larval animals washed with 1 mL M9 (22 mM KH2PO4, 42.25 mM Na2HPO4, 85.5 mM NaCl, 1 mM MgSO4) per unseeded NGM plate. Allow L1 worms to settle into pellet before removing M9 supernatant. Repeat washing step 2 more times. Plate worm pellet onto NGM with […] AMP and 1 mM IPTG plates containing 75 μL peptide lawns.
After at 48 hours at 20° C., animals were recorded using a Basler acA2500-14 uM camera using WormLab software (WormLab 4.1; MBF Bioscience, 2017) for 65 seconds. Worm length, width, and area were calculated within the WormLab software (FIG. 5C-FIG. 5H). As the WormLab worm width metric is an average of cross-sections throughout the length of each worm, this was used to calculate the volume of a worm as a cylinder, with the Volume=π*(0.5*width)^2*length (FIG. 2A-FIG. 2B, FIG. 5A-FIG. 5B).
Two to four plates were recorded per day for at least three days to generate data sets. Control plates of N2 and trh-1 animals raised on the scramble peptide were grown alongside every rescue feeding. Each “worm track” was considered an n=1. Tracks were excluded if (1) worm tracks less than 10 seconds, or (2) worms were further than two standard deviations from the mean metric. Following tests for normality, comparisons were made using either Mann-Whitney tests for direct comparisons between N2 and trh-1 animals reared on OP50, or Kruskal-Wallis non-parametric ANOVAs and Dunn's multiple comparisons tests for animals raised on peptide feeding strains. Comparisons were made for metrics: length (FIG. 5C-FIG. 5D), width (FIG. 5e-FIG. 5F), area (FIG. 5G-FIG. 5H), and volume (FIG. 2A-FIG. 2B, FIG. 5A-FIG. 5B).

For “NSKLHRGGGRSRTSGSTGSMASHARGSPGLQ-NH2 [SCRAMBLE, scramble control peptide expressed in E. coli DH5α, negative control, reference compound]”, the “rescue of attraction to ascr #8 (dwell time, log(fold-change))” value in assay [1] is listed as “does not affect behavior”. Besides, the “Relative Body Volume” value in assay [2] is recorded as roughly 120%.
